Results from US20170233413A1, “SUBSTITUTED ANNULATED PYRIMIDINES AND USE THEREOF” (Bayer Pharma Aktiengesellschaft, priority 2014, published 2017).
pIC50: −log10 of the molar value.

How the values were obtained:
[1] = target: T1, recombinant guanylate cyclase reporter cell line (Rattus norvegicus, UniProt P19686+P20595); assay: Effect on a recombinant guanylate cyclase reporter cell line; format: cell-based; conditions: MEC = minimum effective concentration; in some cases means of individual determinations
T1 construct: expressed in transfected cells
T1 sequence (P19686 1-690): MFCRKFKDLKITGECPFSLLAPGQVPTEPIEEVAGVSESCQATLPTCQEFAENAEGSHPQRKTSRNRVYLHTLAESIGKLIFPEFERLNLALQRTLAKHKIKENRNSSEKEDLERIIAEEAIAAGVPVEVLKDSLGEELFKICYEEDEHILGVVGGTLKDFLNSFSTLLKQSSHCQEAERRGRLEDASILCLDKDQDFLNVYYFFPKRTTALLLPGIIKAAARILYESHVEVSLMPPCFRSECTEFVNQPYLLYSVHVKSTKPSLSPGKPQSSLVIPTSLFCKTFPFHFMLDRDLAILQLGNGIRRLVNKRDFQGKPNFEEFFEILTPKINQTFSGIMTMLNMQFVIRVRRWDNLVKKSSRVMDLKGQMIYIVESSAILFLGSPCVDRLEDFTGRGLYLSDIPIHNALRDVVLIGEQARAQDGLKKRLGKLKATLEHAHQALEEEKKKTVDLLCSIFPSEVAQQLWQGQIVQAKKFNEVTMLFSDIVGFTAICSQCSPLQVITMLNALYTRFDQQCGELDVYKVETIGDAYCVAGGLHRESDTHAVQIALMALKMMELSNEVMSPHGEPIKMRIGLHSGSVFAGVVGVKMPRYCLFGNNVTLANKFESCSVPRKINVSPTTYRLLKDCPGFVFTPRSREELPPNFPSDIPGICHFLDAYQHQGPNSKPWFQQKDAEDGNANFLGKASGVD
T1 sequence (P20595 1-619): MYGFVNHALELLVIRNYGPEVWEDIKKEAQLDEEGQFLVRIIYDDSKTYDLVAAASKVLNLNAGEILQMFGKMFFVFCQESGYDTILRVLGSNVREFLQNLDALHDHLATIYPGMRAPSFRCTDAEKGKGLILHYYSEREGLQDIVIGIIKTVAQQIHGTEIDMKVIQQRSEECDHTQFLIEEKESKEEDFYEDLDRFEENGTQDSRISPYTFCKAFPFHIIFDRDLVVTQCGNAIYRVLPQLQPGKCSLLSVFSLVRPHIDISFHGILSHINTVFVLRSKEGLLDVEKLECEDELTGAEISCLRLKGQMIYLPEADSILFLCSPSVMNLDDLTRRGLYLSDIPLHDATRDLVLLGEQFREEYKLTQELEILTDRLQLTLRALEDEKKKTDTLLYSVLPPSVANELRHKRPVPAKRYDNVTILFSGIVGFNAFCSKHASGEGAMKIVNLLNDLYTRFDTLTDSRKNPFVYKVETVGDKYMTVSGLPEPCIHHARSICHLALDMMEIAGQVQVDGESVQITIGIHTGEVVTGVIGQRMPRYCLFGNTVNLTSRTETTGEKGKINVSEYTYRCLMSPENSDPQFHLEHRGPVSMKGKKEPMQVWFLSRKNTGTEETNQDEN
In short: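 Cellular activity measured in a recombinant rat soluble guanylate cyclase reporter cell line. Values are minimum effective concentration (MEC), some given as means of individual determinations.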

[2] = target: T2, human phosphodiesterase 5 (PDE 5) (Homo sapiens, UniProt O76074); assay: Inhibition of human phosphodiesterase 5 (PDE 5); format: biochemical; conditions: PDE 5 preparation from human platelets; in some cases means of individual determinations
T2 construct: PDE 5 preparations are obtained from human platelets by disruption; from tissue; host or cells: human platelets
In short: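 Enzyme partially purified from human platelets by Mono Q ion exchange, diluted so that under 70% of substrate converts. [8-3H]cGMP at 0.025 μCi per well in Tris pH 7.5 with MgCl2/EDTA, 60 min at room temperature, yttrium SPA bead read-out. Final compound concentrations 4–0.0018 μM; IC50 from concentration–inhibition plot.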

Row | MEC [1] [µM] | pIC50 [2] | SMILES
1 | 0.01 | 6.15 | CN(CC1CC1)C(=O)c1nc(-c2nn(Cc3ccccc3F)c3ncccc23)nc2c1C(C)(C)C(=O)N2 [Example 111, N-(cyclopropylmethyl)-2-[1-(2-fluorobenzyl)-1H-pyrazolo[3,4-b]pyridin-3-yl]-N,5,5-trimethyl-6-oxo-6,7-dihydro-5H-pyrrolo[2,3-d]pyrimidine-4-carboxamide]
2 | 0.03 | 7.03 | CC(C)N(C)C(=O)c1nc(-c2nn(Cc3ccccc3F)c3ncccc23)nc2c1C(C)(C)C(=O)N2 [Example 112, 2-[1-(2-fluorobenzyl)-1H-pyrazolo[3,4-b]pyridin-3-yl]-N,5,5-trimethyl-6-oxo-N-(propan-2-yl)-6,7-dihydro-5H-pyrrolo[2,3-d]pyrimidine-4-carboxamide]
3 | 0.1 | 7.36 | Cc1cccnc1NC(=O)c1nc(-c2nn(Cc3ccccc3F)c3ncccc23)nc2c1C(C)(C)C(=O)N2 [Example 113, 2-[1-(2-fluorobenzyl)-1H-pyrazolo[3,4-b]pyridin-3-yl]-5,5-dimethyl-N-(3-methylpyridin-2-yl)-6-oxo-6,7-dihydro-5H-pyrrolo[2,3-d]pyrimidine-4-carboxamide]
4 | 0.3 | 7.82 | CC1(C)C(=O)Nc2nc(-c3nn(Cc4ccccc4F)c4ncccc34)nc(C(=O)NCCO)c21 [Example 114, 2-[1-(2-fluorobenzyl)-1H-pyrazolo[3,4-b]pyridin-3-yl]-N-(2-hydroxyethyl)-5,5-dimethyl-6-oxo-6,7-dihydro-5H-pyrrolo[2,3-d]pyrimidine-4-carboxamide]
5 | 0.1 | 7.39 | CC1(C)C(=O)Nc2nc(-c3nn(Cc4ccccc4F)c4ncccc34)nc(C(=O)NCc3ccccc3)c21 [Example 115, N-benzyl-2-[1-(2-fluorobenzyl)-1H-pyrazolo[3,4-b]pyridin-3-yl]-5,5-dimethyl-6-oxo-6,7-dihydro-5H-pyrrolo[2,3-d]pyrimidine-4-carboxamide]
6 | 0.1 | 7.60 | CC1(C)C(=O)Nc2nc(-c3nn(Cc4ccccc4F)c4ncccc34)nc(C(=O)NCc3ccccn3)c21 [Example 117, 2-[1-(2-fluorobenzyl)-1H-pyrazolo[3,4-b]pyridin-3-yl]-5,5-dimethyl-6-oxo-N-(pyridin-2-ylmethyl)-6,7-dihydro-5H-pyrrolo[2,3-d]pyrimidine-4-carboxamide]
7 | 0.1 | 7.68 | CC1(C)C(=O)Nc2nc(-c3nn(Cc4ccccc4F)c4ncccc34)nc(C(=O)NCc3ccncc3)c21 [Example 118, 2-[1-(2-fluorobenzyl)-1H-pyrazolo[3,4-b]pyridin-3-yl]-5,5-dimethyl-6-oxo-N-(pyridin-4-ylmethyl)-6,7-dihydro-5H-pyrrolo[2,3-d]pyrimidine-4-carboxamide]
8 | 0.3 | 8.00 | Cc1ccncc1NC(=O)c1nc(-c2nn(Cc3ccccc3F)c3ncccc23)nc2c1C(C)(C)C(=O)N2 [Example 119, 2-[1-(2-fluorobenzyl)-1H-pyrazolo[3,4-b]pyridin-3-yl]-5,5-dimethyl-N-(4-methylpyridin-3-yl)-6-oxo-6,7-dihydro-5H-pyrrolo[2,3-d]pyrimidine-4-carboxamide]
9 | 0.1 | 6.66 | CN(CCO)C(=O)c1nc(-c2nn(Cc3ccccc3F)c3ncccc23)nc2c1C(C)(C)C(=O)N2 [Example 120, 2-[1-(2-fluorobenzyl)-1H-pyrazolo[3,4-b]pyridin-3-yl]-N-(2-hydroxyethyl)-N,5,5-trimethyl-6-oxo-6,7-dihydro-5H-pyrrolo[2,3-d]pyrimidine-4-carboxamide]
10 | 0.3 | 7.57 | CCCCNC(=O)c1nc(-c2nn(Cc3ccccc3F)c3ncccc23)nc2c1C(C)(C)C(=O)N2 [Example 121, N-butyl-2-[1-(2-fluorobenzyl)-1H-pyrazolo[3,4-b]pyridin-3-yl]-5,5-dimethyl-6-oxo-6,7-dihydro-5H-pyrrolo[2,3-d]pyrimidine-4-carboxamide]
11 | 0.1 | 7.70 | CC(C)CNC(=O)c1nc(-c2nn(Cc3ccccc3F)c3ncccc23)nc2c1C(C)(C)C(=O)N2 [Example 122, 2-[1-(2-fluorobenzyl)-1H-pyrazolo[3,4-b]pyridin-3-yl]-5,5-dimethyl-N-(2-methylpropyl)-6-oxo-6,7-dihydro-5H-pyrrolo[2,3-d]pyrimidine-4-carboxamide]
12 | 0.1 | 7.59 | CCOCCCNC(=O)c1nc(-c2nn(Cc3ccccc3F)c3ncccc23)nc2c1C(C)(C)C(=O)N2 [Example 123, N-(3-ethoxypropyl)-2-[1-(2-fluorobenzyl)-1H-pyrazolo[3,4-b]pyridin-3-yl]-5,5-dimethyl-6-oxo-6,7-dihydro-5H-pyrrolo[2,3-d]pyrimidine-4-carboxamide]
13 | 0.3 | 8.22 | CC1(C)C(=O)Nc2nc(-c3nn(Cc4ccccc4F)c4ncccc34)nc(C(=O)NC3CCCC3)c21 [Example 126, N-cyclopentyl-2-[1-(2-fluorobenzyl)-1H-pyrazolo[3,4-b]pyridin-3-yl]-5,5-dimethyl-6-oxo-6,7-dihydro-5H-pyrrolo[2,3-d]pyrimidine-4-carboxamide]
14 | 0.1 | 7.80 | COCCNC(=O)c1nc(-c2nn(Cc3ccccc3F)c3ncccc23)nc2c1C(C)(C)C(=O)N2 [Example 127, 2-[1-(2-fluorobenzyl)-1H-pyrazolo[3,4-b]pyridin-3-yl]-N-(2-methoxyethyl)-5,5-dimethyl-6-oxo-6,7-dihydro-5H-pyrrolo[2,3-d]pyrimidine-4-carboxamide]
15 | 1 | 6.48 | CN(C)CCNC(=O)c1nc(-c2nn(Cc3ccccc3F)c3ncccc23)nc2c1C(C)(C)C(=O)N2 [Example 128, N-[2-(dimethylamino)ethyl]-2-[1-(2-fluorobenzyl)-1H-pyrazolo[3,4-b]pyridin-3-yl]-5,5-dimethyl-6-oxo-6,7-dihydro-5H-pyrrolo[2,3-d]pyrimidine-4-carboxamide]
16 | 0.1 | 8.00 | CCNC(=O)c1nc(-c2nn(Cc3ccccc3F)c3ncccc23)nc2c1C(C)(C)C(=O)N2 [Example 129, N-ethyl-2-[1-(2-fluorobenzyl)-1H-pyrazolo[3,4-b]pyridin-3-yl]-5,5-dimethyl-6-oxo-6,7-dihydro-5H-pyrrolo[2,3-d]pyrimidine-4-carboxamide]
17 | 0.3 | 7.42 | CCCCCNC(=O)c1nc(-c2nn(Cc3ccccc3F)c3ncccc23)nc2c1C(C)(C)C(=O)N2 [Example 131, 2-[1-(2-Fluorobenzyl)-1H-pyrazolo[3,4-b]pyridin-3-yl]-5,5-dimethyl-6-oxo-N-pentyl-6,7-dihydro-5H-pyrrolo[2,3-d]pyrimidine-4-carboxamide]
18 | 0.3 | 7.48 | CC(C)CCNC(=O)c1nc(-c2nn(Cc3ccccc3F)c3ncccc23)nc2c1C(C)(C)C(=O)N2 [Example 132, 2-[1-(2-fluorobenzyl)-1H-pyrazolo[3,4-b]pyridin-3-yl]-5,5-dimethyl-N-(3-methylbutyl)-6-oxo-6,7-dihydro-5H-pyrrolo[2,3-d]pyrimidine-4-carboxamide]
19 | 0.3 | 7.89 | CC[C@H](C)NC(=O)c1nc(-c2nn(Cc3ccccc3F)c3ncccc23)nc2c1C(C)(C)C(=O)N2 [Example 134, N-[(2S)-butan-2-yl]-2-[1-(2-fluorobenzyl)-1H-pyrazolo[3,4-b]pyridin-3-yl]-5,5-dimethyl-6-oxo-6,7-dihydro-5H-pyrrolo[2,3-d]pyrimidine-4-carboxamide]
